# Test results: publication PMC10205660 (Chemistry (Weinheim an der Bergstrasse, Germany), 2023)
# What was measured:
# MCF7 (breast cancer) = experiment: Antiproliferative activity, MCF7; format: cell-based; settings: read-out: IC50 values MCF7; MCF7
# K562 (leukemia) = experiment: Antiproliferative activity, K562; format: cell-based; settings: read-out: IC50 values K562; K562
# A549 (lung cancer) = experiment: Antiproliferative activity, A549; format: cell-based; settings: read-out: IC50 values A549; A549
# HEK293 = settings: read-out: IC50 against normal cell line HEK293; cited from earlier work
# MRC5 = settings: read-out: IC50 against normal cell line MRC5; cited from earlier work
# [1] = tested on: Hsp90-dependent client proteins (pAkt, Cyclin D1, GLUT1), Hsp70, Hsp90 in MCF7 cells; settings: MCF7, 48-hour incubation; cited from earlier work
structure (smiles),measurement,setting,value
"CCCC(O)C(C)C(=O)NC/C=C\CC(C)C(O)C(C)C1C/C=C\CC(C)C(O)Cc2cc(OC)cc(O)c2C(=O)O1 (stereo not drawn) [Compound 1, Cruentaren A, reference compound]",IC50,MCF7 (breast cancer),4.67 nM
same,IC50,K562 (leukemia),1.5 nM
same,IC50,A549 (lung cancer),0.75 nM
same,IC50,HEK293,> 500 nM
same,IC50,MRC5,> 500 nM
same,degradation of Hsp90-dependent client proteins,[1],induced the degradation
